The target of this experiment is T1, HCV polymerase (Hepatitis C virus genotype 1b, UniProt P26663).
T1 construct: a region encoding NS5B (J Virol 1991 March, 65(3), 1105-13, 544 amino acids after deletion of 47 amino acids on the C-terminal); 6xHis (C); made in house; host or cells: Escherichia coli
The experiment can be described thus: biochemical. Details: species or system HCV BK strain. In a few lines:
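His-tagged NS5B (BK strain, 47-aa C-terminal deletion, E. coli-expressed) at 0.5 μg/ml copied 5 μg/ml run-off RNA bearing the HCV 3′ UTR with 2 μM UTP plus [3H]UTP, 50 μM ATP/GTP, in pH 7.5 Tris with 5 mM MgCl2, 25 °C, 90 min. TCA-precipitated RNA was counted and IC50 calculated.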

Where a name gives a salt, the structure may show the parent alone. Where only a bound is given, the exact number is not on record here.

Experimental findings from patent US20070049593A1 (priority 2004, published 2007) are described below.

T1 sequence (P26663 2420-2963): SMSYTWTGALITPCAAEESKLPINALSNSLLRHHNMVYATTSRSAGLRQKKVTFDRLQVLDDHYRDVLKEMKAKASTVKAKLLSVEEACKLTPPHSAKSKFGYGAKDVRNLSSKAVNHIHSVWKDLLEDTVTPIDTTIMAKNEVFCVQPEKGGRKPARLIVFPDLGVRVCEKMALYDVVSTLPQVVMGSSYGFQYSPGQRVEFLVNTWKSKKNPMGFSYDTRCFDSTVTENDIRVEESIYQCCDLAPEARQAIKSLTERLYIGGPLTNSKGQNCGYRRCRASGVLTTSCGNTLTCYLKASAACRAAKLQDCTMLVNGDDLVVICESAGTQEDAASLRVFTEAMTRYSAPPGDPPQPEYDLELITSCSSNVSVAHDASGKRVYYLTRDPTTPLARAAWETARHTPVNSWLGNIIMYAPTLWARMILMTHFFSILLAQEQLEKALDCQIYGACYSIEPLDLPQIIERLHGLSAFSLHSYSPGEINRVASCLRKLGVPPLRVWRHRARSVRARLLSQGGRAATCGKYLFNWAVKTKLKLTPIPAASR

Regarding `COC(=O)c1ccc2nc(C(C)(C)NC(=O)c3ccc4c(C5CCCCC5)c5n(c4c3)CCOc3ccccc3-5)[nH]c2c1` [Example 2-196, methyl 2-{1-[(12-cyclohexyl-6,7-dihydro-5-oxa-7a-azadibenzo[a,e]azulene-9-carbonyl)amino]-1-methylethyl}-3H-benzimidazole-5-carboxylate], the IC50 (commonly the midpoint of a concentration-inhibition curve) is under 0.1 µM.
As for `O=C(O)c1ccc2c(C3CCCCC3)c3n(c2c1)CCN(Cc1ccncc1)c1ccccc1-3` [Example 1-134, 13-cyclohexyl-5-(pyridin-4-ylmethyl)-6,7-dihydro-5H-benzo[5,6][1,4]diazepino[7,1-a]indole-10-carboxylic acid dihydrochloride], the figure is under 0.1 µM; as for `CNC(=O)c1ccc2c(C3CCCCC3)c3n(c2c1)CCN(CC(=O)N1CCN(S(C)(=O)=O)CC1)c1cc(C)ccc1-3` [Example 1-573, N-methyl-13-cyclohexyl-5-[2-(4-methanesulfonylpiperazin-1-yl)-2-oxoethyl]-3-methyl-6,7-dihydro-5H-benzo[5,6][1,4]diazepino[7,1-a]indole-10-carboxamide], under 0.1 µM.
`O=C(O)c1ccc2c(C3CCCCC3)c3n(c2c1)CCOc1c-3cccc1N(CCN1CCCOCC1)CCN1CCCOCC1` [Example 2-360, 4-{bis[2-(1,4-oxazepan-4-yl)ethyl]amino}-12-cyclohexyl-6,7-dihydro-5-oxa-7a-azadibenzo[a,e]azulene-9-carboxylic acid trihydrochloride] came in with an IC50 of under 0.1 µM.
With `O=C(O)c1ccc2c(C3CCCCC3)c3n(c2c1)CCOc1cc(OCc2ccc(N4CCCC4=O)cc2N2CCOCC2)ccc1-3` [Example 2-9, 12-cyclohexyl-3-[2-(morpholin-4-yl)-4-(2-oxopyrrolidin-1-yl)benzyloxy]-6,7-dihydro-5-oxa-7a-azadibenzo[a,e]azulene-9-carboxylic acid] the figure was under 0.1 µM.
As for `CC(C)(NC(=O)c1ccc2c(C3CCCCC3)c3n(c2c1)CCOc1ccccc1-3)C(=O)NCCc1ccc(O)cc1` [Example 2-203, N-{1-[2-(4-hydroxyphenyl)ethylcarbamoyl]-1-methylethyl}-12-cyclohexyl-6,7-dihydro-5-oxa-7a-azadibenzo[a,e]azulene-9-carboxamide], the figure is under 0.1 µM; as for `O=C(O)c1ccc2c(C3CCCCC3)c3n(c2c1)CCN(Cc1ccccn1)c1ccccc1-3` [Example 1-126, 13-cyclohexyl-5-(pyridin-2-ylmethyl)-6,7-dihydro-5H-benzo[5,6][1,4]diazepino[7,1-a]indole-10-carboxylic acid dihydrochloride], under 0.1 µM; as for `CC(=O)N(CCN1CCCCC1)c1cccc2c1OCCn1c-2c(C2CCCCC2)c2ccc(C(=O)O)cc21` [Example 2-485, 4-{N-acetyl-N-[2-(piperidin-1-yl)ethyl]amino}-12-cyclohexyl-6,7-dihydro-5-oxa-7a-azadibenzo[a,e]azulene-9-carboxylic acid], under 0.1 µM.
As for `CCN1CCCC(CCCN2CCn3c(c(C4CCCCC4)c4ccc(C(=O)O)cc43)-c3ccc(Cl)cc32)C1` (stereo not drawn) [Example 1-411, 3-chloro-13-cyclohexyl-5-[3-(1-ethylpiperidin-3-yl)propyl]-6,7-dihydro-5H-benzo[5,6][1,4]diazepino[7,1-a]indole-10-carboxylic acid dihydrochloride], the figure is under 0.1 µM; as for `CCOc1ccc2c(c1)N(CCN1CCCC(C)C1)CCn1c-2c(C2CCCCC2)c2ccc(C(=O)O)cc21` (stereo not drawn) [Example 1-345, 13-cyclohexyl-3-ethoxy-5-[2-(3-methylpiperidin-1-yl)ethyl]-6,7-dihydro-5H-benzo[5,6][1,4]diazepino[7,1-a]indole-10-carboxylic acid dihydrochloride], under 0.1 µM.
`CN(C)CCN(C)c1cccc2c1OCCn1c-2c(C2CCCCC2)c2ccc(C(=O)O)cc21` [Example 2-162, 12-cyclohexyl-4-[N-(2-dimethylaminoethyl)-N-methylamino]-6,7-dihydro-5-oxa-7a-azadibenzo[a,e]azulene-9-carboxylic acid dihydrochloride] had an IC50 of under 0.1 µM.
`CN(C)CCCN1CCn2c(c(C3CCCCC3)c3ccc(C(=O)O)cc32)-c2ccc(Cl)cc21` [Example 1-247, 3-chloro-13-cyclohexyl-5-(3-dimethylaminopropyl)-6,7-dihydro-5H-benzo[5,6][1,4]diazepino[7,1-a]indole-10-carboxylic acid dihydrochloride] displayed an IC50 of under 0.1 µM.
With `CN1CCCC(CCN2CCn3c(c(C4CCCCC4)c4ccc(C(=O)O)cc43)-c3ccc(Cl)cc32)C1` (stereo not drawn) [Example 1-221, 3-chloro-13-cyclohexyl-5-[2-(1-methylpiperidin-3-yl)ethyl]-6,7-dihydro-5H-benzo[5,6][1,4]diazepino[7,1-a]indole-10-carboxylic acid dihydrochloride] the figure was under 0.1 µM; with `CS(=O)(=O)c1ccc(N2CCOCC2)c(COc2ccc3c(c2)OCCn2c-3c(C3CCCCC3)c3ccc(C(N)=O)cc32)c1` [Example 2-48, 12-cyclohexyl-3-[5-methanesulfonyl-2-(morpholin-4-yl)benzyloxy]-6,7-dihydro-5-oxa-7a-azadibenzo[a,e]azulene-9-carboxamide monohydrochloride], under 0.1 µM.
For `O=C(O)c1ccc2c(C3CCCCC3)c3n(c2c1)CCN(CCC1CCCNC1)c1cc(Cl)ccc1-3` (stereo not drawn) [Example 1-219, 3-chloro-13-cyclohexyl-5-[2-(piperidin-3-yl)ethyl]-6,7-dihydro-5H-benzo[5,6][1,4]diazepino[7,1-a]indole-10-carboxylic acid dihydrochloride], the IC50 is under 0.1 µM.
Compound `CCC1CCCN(CCN2CCn3c(c(C4CCCCC4)c4ccc(C(=O)O)cc43)-c3ccccc32)C1` (stereo not drawn) [Example 1-190, 13-cyclohexyl-5-[2-(3-ethylpiperidin-1-yl)ethyl]-6,7-dihydro-5H-benzo[5,6][1,4]diazepino[7,1-a]indole-10-carboxylic acid dihydrochloride] showed an IC50 of under 0.1 µM.
For `CCC(=O)N1CCN(CCN2CCn3c(c(C4CCCCC4)c4ccc(C(=O)O)cc43)-c3ccccc32)CC1` [Example 1-225, 13-cyclohexyl-5-[2-(4-propionylpiperazin-1-yl)ethyl]-6,7-dihydro-5H-benzo[5,6][1,4]diazepino[7,1-a]indole-10-carboxylic acid dihydrochloride], the IC50 was under 0.1 µM.
As for `CC[C@@H]1CCCN(CCN2CCn3c(c(C4CCCCC4)c4ccc(C(=O)O)cc43)-c3ccc(C)cc32)C1` [Example 1-420, 13-cyclohexyl-5-[2-((R)-3-ethylpiperidin-1-yl)ethyl]-3-methyl-6,7-dihydro-5H-benzo[5,6][1,4]diazepino[7,1-a]indole-10-carboxylic acid dihydrochloride], the figure is under 0.1 µM; as for `O=C(Nc1nc2ccccc2[nH]1)c1ccc2c(C3CCCCC3)c3n(c2c1)CCOc1ccccc1-3` [Example 2-267, N-(1H-benzimidazol-2-yl)-12-cyclohexyl-6,7-dihydro-5-oxa-7a-azadibenzo[a,e]azulene-9-carboxamide], 0.1 to 1 µM; as for `O=C(O)c1ccc2c(C3CCCCC3)c3n(c2c1)CCOc1cc(O[C@H]2CCNC2)ccc1-3` [Example 2-42, 12-cyclohexyl-3-((S)-pyrrolidin-3-yloxy)-6,7-dihydro-5-oxa-7a-azadibenzo[a,e]azulene-9-carboxylic acid monohydrochloride], under 0.1 µM.
As for `CN(C)Cc1cccc(-c2cccc3c2OCCn2c-3c(C3CCCCC3)c3ccc(C(=O)O)cc32)c1` [Example 2-328, 12-cyclohexyl-4-(3-dimethylaminomethylphenyl)-6,7-dihydro-5-oxa-7a-azadibenzo[a,e]azulene-9-carboxylic acid monohydrochloride], the figure is under 0.1 µM.
As for `Cc1ccc2c(c1)N(CCN1CCC[C@@H](CC(C)(C)O)C1)CCn1c-2c(C2CCCCC2)c2ccc(C(=O)O)cc21` [Example 1-529, 13-cyclohexyl-5-{2-[(S)-3-(2-hydroxy-2-methylpropyl)piperidin-1-yl]ethyl}-3-methyl-6,7-dihydro-5H-benzo[5,6][1,4]diazepino[7,1-a]indole-10-carboxylic acid dihydrochloride], the figure is under 0.1 µM; as for `COCCN(C)CCN1CCn2c(c(C3CCCCC3)c3ccc(C(=O)O)cc32)-c2ccccc21` [Example 1-40, 13-cyclohexyl-5-{2-[N-(2-methoxyethyl)-N-methylamino]ethyl}-6,7-dihydro-5H-benzo[5,6][1,4]diazepino[7,1-a]indole-10-carboxylic acid dihydrochloride], under 0.1 µM; as for `Cc1ccc2c(c1)N(C)CCn1c-2c(C2CCCCC2)c2ccc(C(=O)O)nc21` [Example 8-8, 12-cyclohexyl-3,5-dimethyl-6,7-dihydro-5H-5,7a,8-triazadibenzo[a,e]azulene-9-carboxylic acid], 0.1 to 1 µM.
For the compound `COC(=O)Nc1ccccc1Oc1ccc2c(c1)OCCn1c-2c(C2CCCCC2)c2ccc(C(=O)O)cc21` [Example 2-52, 12-cyclohexyl-3-[2-(methoxycarbonylamino)phenoxy]-6,7-dihydro-5-oxa-7a-azadibenzo[a,e]azulene-9-carboxylic acid], the IC50 was under 0.1 µM.
Regarding `COc1ccc2c(c1)OCCn1c-2c(C2CCCCC2)c2ccc(C(=O)NC(C)(C)c3nc4ccc(C(=O)N5CCOCC5)cc4[nH]3)cc21` [Example 2-419, N-(1-methyl-1-[6-(morpholine-4-carbonyl)-1H-benzimidazol-2-yl]ethyl}-12-cyclohexyl-3-methoxy-6,7-dihydro-5-oxa-7a-azadibenzo[a,e]azulene-9-carboxamide], the IC50 is under 0.1 µM.
As for `O=C(O)c1ccc2c(C3CCCCC3)c3n(c2c1)CCOc1cc(OCc2ccccc2N2CCOCC2)ccc1-3` [Example 2-14, 12-cyclohexyl-3-[2-(morpholin-4-yl)benzyloxy]-6,7-dihydro-5-oxa-7a-azadibenzo[a,e]azulene-9-carboxylic acid monohydrochloride], the figure is under 0.1 µM.
